Where two headings read alike, the source gives them in different places.
Columns and labels:
Human Serotonin 5-HT6R [1] = target: T1, Human Serotonin 5-HT6R (Homo sapiens, UniProt P50406); test: 5-HT6R functional assay, agonistic mode (cAMP, 1321N1 cells); assay type: cell-based; details: agonistic mode; read-out: 5-HT6 EC50
T1 construct: host or cells: 1321N1 (frozen recombinant cells)
Procedure: (§1) The properties of compounds to inhibit cAMP production induced by a 5-HT6R agonist 5-CT (1000 nM) was evaluated. Compounds were tested in triplicate at eight concentrations (10^−11–10^−4 M). The level of cAMP was measured using frozen recombinant 1321N1 cells expressing the Human Serotonin 5-HT6R (PerkinElmer). Total cAMP was measured using the LANCE cAMP Detection Kit (PerkinElmer), according to the manufacturer’s instructions. For quantification of cAMP levels, 2000 cells/well ([…]) were incubated with a mixture of compounds ([…]) for 30 min at room temperature in a 384-well white opaque microtiter plate. After incubation, the reaction was stopped and cells were lysed by the addition of […] of working solution ([…] ULight-anti-cAMP) for 1 h at room temperature. Time-resolved fluorescence resonance energy transfer (TR-FRET) was detected by an Infinite M1000 Pro (Tecan) using instrument settings from the LANCE cAMP Detection Kit manual. […] The agonistic properties of compounds were determined with an analogous procedure, but without stimulation with 5-CT [10, 36].

Human Serotonin 5-HT6R [2] = target: T1, Human Serotonin 5-HT6R; test: 5-HT6R functional assay, antagonistic mode (cAMP induced by 5-CT, 1321N1 cells); assay type: cell-based; details: antagonistic mode, 5-CT 1000 nM; read-out: 5-HT6 Kb
Procedure: as §1

[3] = Metabolic stability, incubation with mouse liver microsomes; assay type: in vitro ADME; details: MLMs, 50 µM, 2 h
Procedure: The murine liver microsomes (MLMs) were purchased from Sigma-Aldrich (St. Louis, MO, USA). To determine metabolic pathways, the tested compounds (50 µM) were incubated with 100 mM Tris-HCl buffer at 37 °C with MLMs (1 mg/mL) and NADPH Regeneration System for 2 h. Reactions were quenched with cold, pure methanol and mixtures were centrifuged 14,000 g for 15 min. The supernatants were analyzed using LCMS. The additional MS ion fragmentation of the product and the substrate were performed to determine the most probable structure of the metabolite.

CYP3A4 = target: T2, CYP3A4 (Homo sapiens, UniProt P08684); test: CYP3A4 P450-Glo luminescent assay; assay type: in vitro ADME; details: compared to ketoconazole; 0.01 to 25 µM
T2 construct: purchased Promega (Madison, WI, USA)
Procedure: The experiments were provided using commercially available luminescent CYP3A4 P450-Glo™ and CYP2D6 P450-Glo™ tests purchased from Promega (Madison, WI, USA). The enzymatic reactions were conducted in polystyrene, flat-bottom Nunc™ MicroWell™ 96-well microplates (Thermo Scientific, Waltham, MA, USA). The assays were carried out according to the procedures provided by the manufacturer, as described previously. Compounds were tested in triplicate at the final concentrations in a range from 0.01 to 25 µM for both isoforms of CYP450. The references of CYP3A4 and CYP2D6 inhibitors (ketoconazole and quinidine, respectively) were tested in a range from 0.001 to 10 µM. Tested compounds were incubated in 100 mM Tris-HCl buffer separately with CYP3A4 and CYP2D6 membranes and the NADPH Regeneration System for 30 min at room temperature in triplicate. The bioluminescent signal was measured after the addition of the Luciferin Detection Reagent by using a microplate reader EnSpire PerkinElmer (Waltham, MA, USA). Both reagents (NADPH Regeneration System and Luciferin Detection Reagent) were purchased from Promega (Madison, WI, USA).

HepG2 cell line = test: Hepatotoxicity assay, HepG2 viability; assay type: cell-based; details: 1 μM, 72 h
Procedure: To estimate the hepatotoxicity of compounds, the hepatoma HepG2 (ATCC® HB-8065TM) cell line was used according to previously described protocols. The CellTiter 96® AQueous Non-Radioactive Cell Proliferation Assay was obtained from Promega (Madison, WI, USA). The compounds were tested in quadruplicate at four concentrations (1–100 µM) for 72 h.

[4] = PAMPA
[5] = Metabolic stability, incubation with mouse liver microsomes; assay type: in vitro ADME; details: MLMs, prolonged incubation
in vitro = details: PAMPA, pH 7.4
D2R [6] = target: T3, D2R (Homo sapiens, UniProt P14416); test: D2R functional assay, antagonist mode (cAMP, HEK293 cells); assay type: cell-based; design: expressed in transfected cells
Procedure: The supernatant was aspirated, and the cell pellet was resuspended in stimulation buffer (1 × HBSS, 5 mM HEPES, 0.5 mM IBMX, 0.1% BSA).
The functional properties of compounds were evaluated using the LANCE Ultra cAMP Detection Kit (PerkinElmer). D2 receptors in HEK293 cells are coupled to Gi subtype and decreased cAMP production. […] Each compound was tested in triplicate at eight concentrations (10^−11–10^−4 M).
For quantification of cAMP levels, cells (5 µL) were incubated with 5 µL mixture of compounds (tested ligand and forskolin with 100 nM quinpirole for antagonist binding mode) for 30 min at room temperature in 384-well white opaque microtiter plate (PerkinElmer). After incubation, the reaction was stopped and cells were lysed by the addition of 10 µL working solution (5 µL Eu-cAMP and 5 µL ULight-anti-cAMP). The assay plate was incubated for 1 h at room temperature. Time-resolved fluorescence resonance energy transfer (TR-FRET) signal was detected by an Infinite M1000 Pro (Tecan) using instrument settings from the LANCE Ultra cAMP Detection Kit manual.

5-HT2AR [7] = target: T4, 5-HT2AR (Homo sapiens, UniProt P28223); test: Radioligand binding assay, [3H]-ketanserin displacement; design: host or cells: CHO-K1; membrane preparation
5-HT7R = 5-HT7R (Homo sapiens, UniProt P34969); test: Radioligand binding assay, [3H]-5-CT displacement
5-HT1AR = target: T5, 5-HT1AR (Homo sapiens, UniProt P08908); test: Radioligand binding assay, [3H]-8-OH-DPAT displacement; details: pKi 5-HT1A, Table 1
T5 sequence (P08908 1-422): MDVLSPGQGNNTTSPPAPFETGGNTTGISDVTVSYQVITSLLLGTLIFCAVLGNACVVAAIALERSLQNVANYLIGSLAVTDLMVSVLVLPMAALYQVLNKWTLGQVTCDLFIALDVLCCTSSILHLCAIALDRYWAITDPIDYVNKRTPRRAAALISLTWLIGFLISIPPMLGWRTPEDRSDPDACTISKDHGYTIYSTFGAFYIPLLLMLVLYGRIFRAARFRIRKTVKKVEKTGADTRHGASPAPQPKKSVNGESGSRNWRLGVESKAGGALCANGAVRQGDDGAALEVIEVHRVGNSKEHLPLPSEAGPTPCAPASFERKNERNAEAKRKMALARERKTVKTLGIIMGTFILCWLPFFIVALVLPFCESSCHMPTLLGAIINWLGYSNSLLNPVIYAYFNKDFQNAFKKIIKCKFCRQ

D2R [8] = target: T3, D2R; test: Radioligand binding assay, [3H]-raclopride displacement
5-HT2AR [9] = target: T4, 5-HT2AR; test: 5-HT2AR function (no method given)
5-HT6R = 5-HT6R (Homo sapiens, UniProt P50406); test: Radioligand binding assay, [3H]-LSD displacement
5-HT6 [10] = system: 5-HT6; design: method as in Dupuis et al. (2008) [31]; details: Figure 8; ref Dupuis et al. (2008) [31]; cited from earlier work
D2 = target: D2; design: method as in Dupuis et al. (2008) [31]; details: Figure 8; ref Dupuis et al. (2008) [31]; cited from earlier work
5-HT6 [11] = details: read-out: Ki 5-HT6; Figure 8; ref Dupuis et al. (2008) [31]; cited from earlier work

T3 sequence (P14416 whole entry): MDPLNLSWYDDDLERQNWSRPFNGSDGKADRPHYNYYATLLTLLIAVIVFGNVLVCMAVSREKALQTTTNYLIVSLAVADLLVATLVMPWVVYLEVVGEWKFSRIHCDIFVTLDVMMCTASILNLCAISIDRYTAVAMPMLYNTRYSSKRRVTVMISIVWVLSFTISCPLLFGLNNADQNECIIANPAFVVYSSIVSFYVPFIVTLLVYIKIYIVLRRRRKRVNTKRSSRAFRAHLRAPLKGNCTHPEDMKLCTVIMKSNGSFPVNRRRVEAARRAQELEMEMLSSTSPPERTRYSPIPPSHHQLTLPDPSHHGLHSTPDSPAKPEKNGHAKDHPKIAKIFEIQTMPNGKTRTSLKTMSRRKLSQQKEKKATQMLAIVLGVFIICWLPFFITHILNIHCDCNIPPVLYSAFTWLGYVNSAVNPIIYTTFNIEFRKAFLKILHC
T1 sequence (P50406 whole entry): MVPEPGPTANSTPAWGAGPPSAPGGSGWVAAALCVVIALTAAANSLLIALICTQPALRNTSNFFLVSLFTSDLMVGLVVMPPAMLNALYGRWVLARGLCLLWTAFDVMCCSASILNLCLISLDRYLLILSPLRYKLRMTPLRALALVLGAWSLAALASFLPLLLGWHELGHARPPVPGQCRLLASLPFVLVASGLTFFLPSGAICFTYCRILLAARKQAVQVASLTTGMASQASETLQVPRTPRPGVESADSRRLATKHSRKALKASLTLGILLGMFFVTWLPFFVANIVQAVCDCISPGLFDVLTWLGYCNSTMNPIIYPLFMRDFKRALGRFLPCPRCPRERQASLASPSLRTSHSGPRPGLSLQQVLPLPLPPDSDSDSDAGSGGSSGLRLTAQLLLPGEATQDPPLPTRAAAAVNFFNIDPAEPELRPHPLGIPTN
T4 sequence (P28223 whole entry): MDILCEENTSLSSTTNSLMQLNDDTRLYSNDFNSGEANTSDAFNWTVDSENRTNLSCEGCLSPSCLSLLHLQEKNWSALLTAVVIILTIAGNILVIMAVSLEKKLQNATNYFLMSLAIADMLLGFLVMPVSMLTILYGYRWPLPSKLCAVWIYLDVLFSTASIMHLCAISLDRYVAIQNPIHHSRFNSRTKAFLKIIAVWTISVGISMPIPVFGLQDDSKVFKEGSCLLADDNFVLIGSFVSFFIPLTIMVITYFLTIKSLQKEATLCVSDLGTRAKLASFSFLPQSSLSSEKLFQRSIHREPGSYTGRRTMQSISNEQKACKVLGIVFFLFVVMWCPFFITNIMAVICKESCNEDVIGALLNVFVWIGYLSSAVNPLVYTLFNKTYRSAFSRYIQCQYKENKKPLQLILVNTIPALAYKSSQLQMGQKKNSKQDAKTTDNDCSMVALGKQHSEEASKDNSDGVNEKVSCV
Sequence of 5-HT6R (P50406 whole entry): as the sequence (P50406 whole entry) above
Sequence of 5-HT7R (P34969 1-432): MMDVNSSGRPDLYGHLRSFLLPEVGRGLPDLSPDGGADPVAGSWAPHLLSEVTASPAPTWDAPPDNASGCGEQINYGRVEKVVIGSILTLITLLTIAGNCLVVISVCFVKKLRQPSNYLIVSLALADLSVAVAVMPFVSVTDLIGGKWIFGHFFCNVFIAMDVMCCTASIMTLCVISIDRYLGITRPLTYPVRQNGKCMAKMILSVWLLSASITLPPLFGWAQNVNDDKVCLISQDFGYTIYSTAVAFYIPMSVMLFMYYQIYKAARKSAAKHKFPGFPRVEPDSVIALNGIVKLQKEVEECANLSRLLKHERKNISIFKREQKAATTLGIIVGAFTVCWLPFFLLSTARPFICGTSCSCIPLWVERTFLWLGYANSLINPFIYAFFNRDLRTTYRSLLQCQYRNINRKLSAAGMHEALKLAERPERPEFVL
T2 sequence (P08684 whole entry): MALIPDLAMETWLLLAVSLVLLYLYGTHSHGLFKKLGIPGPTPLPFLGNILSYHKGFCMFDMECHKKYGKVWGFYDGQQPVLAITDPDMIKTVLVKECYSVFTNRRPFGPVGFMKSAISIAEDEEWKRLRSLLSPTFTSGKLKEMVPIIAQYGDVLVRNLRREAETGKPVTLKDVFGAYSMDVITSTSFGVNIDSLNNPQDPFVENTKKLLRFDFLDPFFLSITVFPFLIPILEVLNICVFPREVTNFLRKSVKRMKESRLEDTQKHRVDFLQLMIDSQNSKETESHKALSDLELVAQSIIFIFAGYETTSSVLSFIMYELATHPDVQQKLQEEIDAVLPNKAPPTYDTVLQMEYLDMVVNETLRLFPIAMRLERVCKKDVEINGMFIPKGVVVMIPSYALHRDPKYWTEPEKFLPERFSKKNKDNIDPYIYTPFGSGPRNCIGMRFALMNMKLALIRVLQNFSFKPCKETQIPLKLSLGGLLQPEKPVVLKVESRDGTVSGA

Clc1ccc2c(CCNCc3c[nH]c4ccccc34)c[nH]c2c1 [Compound 5]
EC50 (Human Serotonin 5-HT6R [1]): 157 nM | Kb (Human Serotonin 5-HT6R [2]): 136 nM | Metabolic Pathway, metabolite M1 [3]: hydroxylation | effect on CYP3A4 activity (CYP3A4): inducer of CYP3A4 | HepG2 cell viability (HepG2 cell line): ~ 80 % of the control | effect on HepG2 proliferation in words (HepG2 cell line): slight antiproliferative effect | permeability in words [4]: medium permeability coefficients | number of hydroxylated metabolites [5]: only one hydroxylated metabolite | Papp at 5 h, 200 µM (in vitro): 7.09 ± 1.24 ×10⁻⁶ cm/s | Kb (D2R [6]; antagonistic mode, 100 nM quinpirole, read-out: D2 Kb): 104 nM | EC50 (D2R [6]; read-out: EC50 (D2 receptor, antagonistic function)): 104 nM | Ki (5-HT2AR [7]; Table 1, read-out: pKi 5-HT2A (converted)): 1170 nM | Ki (5-HT7R): 15800 nM | Ki (5-HT1AR): 3310 nM | Ki (D2R [8]; Ki D2, Figure 8): 155 nM | Ki (D2R [8]; pKi D2, Table 1): 155 nM

c1ccc2c(CCNCc3c[nH]c4ccccc34)c[nH]c2c1 [Compound 1, [2-(1H-indol-3-yl)ethyl][(1H-indol-3-yl)methyl]amine]
Kb (Human Serotonin 5-HT6R [2]): 151 nM | 5-HT2AR function in words (5-HT2AR [9]): 5-HT2AR partial agonist | Ki (5-HT2AR [7]; Ki 5-HT2A): 20 nM | Ki (5-HT2AR [7]; pKi 5-HT2A, Table 1): 20 nM | Ki (5-HT6R; Ki 5-HT6, Figure 8): 172 nM | Ki (5-HT6R; pKi 5-HT6, Table 1): 174 nM | Ki (5-HT7R): 28800 nM | Ki (5-HT1AR): 1510 nM | pKi D2 (D2R [8]; Table 1): 7.22

O=C1Cc2cc(CCN3CCN(c4nsc5ccccc45)CC3)c(Cl)cc2N1 [Ziprasidone]
Kb (5-HT6 [10]): 57.5 nM | Ki (D2): 0.8 nM | Ki (5-HT6 [11]): 20 nM

— publication PMC8347595, “N-Skatyltryptamines—Dual 5-HT6R/D2R Ligands with Antipsychotic and Procognitive Potential” (Molecules, 2021)
